In brackets after ≈: the same amount, converted by molar mass.
Tests used:
Assay type in all cases: functional
Enterococcus faecium [1] = assay: Antimicrobial activity against erythromycin-, streptomycin-, vancomycin-, gentamicin-resistant Enterococcus faecium TX1330RF-B1 conjugant expressing hylEfm gene by agar dilution method
Enterococcus faecium [2] = assay: Antimicrobial activity against vancomycin-, gentamicin-resistant Enterococcus faecium TX1330RF-B2 conjugant expressing hylEfm gene by agar dilution method
Enterococcus faecium [3] = assay: Antimicrobial activity against vancomycin-, gentamicin-resistant Enterococcus faecium B expressing hylEfm gene by agar dilution method
Enterococcus faecium [4] = assay: Antimicrobial activity against fusidic acid-, rifampin-resistant Enterococcus faecium TX1330RF by agar dilution method
Enterococcus faecium [5] = assay: Antimicrobial activity against pbp5 gene-deficient vancomycin-, fusidic acid-, rifampin-resistant Enterococcus faecium D344SRF-C6 expressing hylEfm gene by agar dilution method
Enterococcus faecium [6] = assay: Antimicrobial activity against pbp5 gene-deficient fusidic acid-, rifampin-resistant Enterococcus faecium D344SRF expressing hylEfm gene by agar dilution method
Enterococcus faecium [7] = assay: Antimicrobial activity against erythromycin-, streptomycin-resistant Enterococcus faecium A expressing hylEfm gene by agar dilution method
Enterococcus faecium [8] = assay: Antimicrobial activity against erythromycin-, streptomycin-resistant Enterococcus faecium TX1330RF-A1 conjugant expressing hylEfm gene by agar dilution method
Enterococcus faecium [9] = assay: Antimicrobial activity against vancomycin-resistant Enterococcus faecium C expressing hylEfm gene by agar dilution method

Structure (SMILES)	MIC (Enterococcus faecium [1])	MIC (Enterococcus faecium [2])	MIC (Enterococcus faecium [3])	MIC (Enterococcus faecium [4])	MIC (Enterococcus faecium [5])	MIC (Enterococcus faecium [6])	MIC (Enterococcus faecium [7])	MIC (Enterococcus faecium [8])	MIC (Enterococcus faecium [9])
CC1(C)S[C@@H]2[C@H](NC(=O)[C@H](N)c3ccccc3)C(=O)N2[C@H]1C(=O)O [AMPICILLIN]	1 µg/mL (≈ 2.86 µM)	1 µg/mL (≈ 2.86 µM)	256 µg/mL (≈ 733 µM)	1 µg/mL (≈ 2.86 µM)	< 0.25 µg/mL	< 0.25 µg/mL	4 µg/mL (≈ 11.4 µM)	1 µg/mL (≈ 2.86 µM)	128 µg/mL (≈ 366 µM)
CC[C@H]1OC(=O)[C@H](C)[C@@H](O[C@H]2C[C@@](C)(OC)[C@@H](O)[C@H](C)O2)[C@H](C)[C@@H](O[C@@H]2O[C@H](C)C[C@H](N(C)C)[C@H]2O)[C@](C)(O)C[C@@H](C)C(=O)[C@H](C)[C@@H](O)[C@]1(C)O [ERYTHROMYCIN]	> 512 µg/mL	0.25 µg/mL (≈ 0.341 µM)	> 512 µg/mL	0.5 µg/mL (≈ 0.681 µM)	> 512 µg/mL	512 µg/mL (≈ 698 µM)	> 512 µg/mL	> 512 µg/mL	> 512 µg/mL
CN[C@H](CC(C)C)C(=O)N[C@H]1C(=O)N[C@@H](CC(N)=O)C(=O)N[C@H]2C(=O)N[C@H]3C(=O)N[C@H](C(=O)N[C@H](C(=O)O)c4cc(O)cc(O)c4-c4cc3ccc4O)[C@H](O)c3ccc(c(Cl)c3)Oc3cc2cc(c3O[C@@H]2O[C@H](CO)[C@@H](O)[C@H](O)[C@H]2O[C@H]2C[C@](C)(N)[C@H](O)[C@H](C)O2)Oc2ccc(cc2Cl)[C@H]1O [VANCOMYCIN]		256 µg/mL (≈ 177 µM)	512 µg/mL (≈ 353 µM)						256 µg/mL (≈ 177 µM)

Source: ChEMBL document CHEMBL1649239, “Cotransfer of antibiotic resistance genes and a hylEfm-containing virulence plasmid in Enterococcus faecium” (2009)
